# Patent US11440884B2, “Compounds, salts thereof and methods for treatment of diseases” (ACADIA PHARMACEUTICALS INC., priority 2017, dated 2022)
# Target: 5-HT2A receptor (Homo sapiens (Human), UniProt P28223)
# Assay: Receptor Selection and Amplification (R-SAT) functional antagonist assay;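 note: Read-out is β-galactosidase marker gene activity with ONPG substrate, measured after five days of growth in 96-well plates holding the test compound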
# Conditions: not given
# Chain of 5-HT2A receptor (P28223 whole entry): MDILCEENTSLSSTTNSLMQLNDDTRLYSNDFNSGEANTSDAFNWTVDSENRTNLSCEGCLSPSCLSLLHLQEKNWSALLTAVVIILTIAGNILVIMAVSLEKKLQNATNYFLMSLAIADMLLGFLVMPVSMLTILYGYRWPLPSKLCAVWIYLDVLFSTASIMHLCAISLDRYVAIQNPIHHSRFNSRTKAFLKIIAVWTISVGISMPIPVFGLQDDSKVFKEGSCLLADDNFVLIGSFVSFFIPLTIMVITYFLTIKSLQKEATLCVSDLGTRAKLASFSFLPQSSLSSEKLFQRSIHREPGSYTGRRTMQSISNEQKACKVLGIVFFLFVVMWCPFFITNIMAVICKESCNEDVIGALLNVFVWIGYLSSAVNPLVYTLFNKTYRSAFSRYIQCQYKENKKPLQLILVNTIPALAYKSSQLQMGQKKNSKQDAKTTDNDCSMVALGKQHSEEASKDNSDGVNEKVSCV
SMILES,Ki [pM],5-HT2a pKi
"CC(C)Oc1ccc(COC(=O)N(Cc2ccc(F)cc2)[C@H]2CCNC[C@H]2F)cc1 (racemic) [3a/3b, [4-(propan-2-yloxy)phenyl]methyl N-[(4-fluorophenyl)methyl]-N-[(3R,4S)-3-fluoropiperidin-4-yl]carbamate (3a) and [4-(propan-2-yloxy)phenyl]methyl N-[(4-fluorophenyl)methyl]-N-[(3S,4R)-3-fluoropiperidin-4-yl]carbamate (3b)]",100,
"CC(C)Oc1ccc(COC(=O)N(Cc2ccc(F)cc2)[C@H]2CCN(C)C[C@H]2F)cc1 (racemic) [4a/4b, [4-(propan-2-yloxy)phenyl]methyl N-[(3R,4S)-3-fluoro-1-methylpiperidin-4-yl]-N-[(4-fluorophenyl)methyl]carbamate (4a) and [4-(propan-2-yloxy)phenyl]methyl N-[(3S,4R)-3-fluoro-1-methylpiperidin-4-yl]-N-[(4-fluorophenyl)methyl]carbamate (4b)]",100,
"CC(C)COc1ccc(COC(=O)N(Cc2ccc(F)cc2)[C@H]2CCNC[C@H]2F)cc1 (racemic) [5a/5b, [4-(2-methylpropoxy)phenyl]methyl N-[(4-fluorophenyl)methyl]-N-[(3R,4S)-3-fluoropiperidin-4-yl]carbamate (5a) and [4-(2-methylpropoxy)phenyl]methyl N-[(4-fluorophenyl)methyl]-N-[(3S,4R)-3-fluoropiperidin-4-yl]carbamate (5b)]",251,
"CC(C)COc1ccc(COC(=O)N(Cc2ccc(F)cc2)[C@H]2CCN(C)C[C@H]2F)cc1 (racemic) [6a/6b, [4-(2-methylpropoxy)phenyl]methyl N-[(3R,4S)-3-fluoro-1-methylpiperidin-4-yl]-N-[(4-fluorophenyl)methyl]carbamate (6a) and [4-(2-methylpropoxy)phenyl]methyl N-[(3S,4R)-3-fluoro-1-methylpiperidin-4-yl]-N-[(4-fluorophenyl)methyl]carbamate (6b)]",251,
"CC(C)COc1ccc(CCOC(=O)N(Cc2ccc(F)cc2)[C@H]2CCNC[C@H]2F)cc1 (racemic) [9a/9b, 2-[4-(2-methylpropoxy)phenyl]ethyl N-[(4-fluorophenyl)methyl]-N-[(3R,4S)-3-fluoropiperidin-4-yl]carbamate; trifluoroacetic acid (9a) and 2-[4-(2-methylpropoxy)phenyl]ethyl N-[(4-fluorophenyl)methyl]-N-[(3S,4R)-3-fluoropiperidin-4-yl]carbamate; trifluoroacetic acid (9b)]",63100,
"CC(C)COc1ccc(CCOC(=O)N(Cc2ccc(F)cc2)[C@H]2CCN(C)C[C@H]2F)cc1 (racemic) [10a/10b, 2-[4-(2-methylpropoxy)phenyl]ethyl N-[(3R,4S)-3-fluoro-1-methylpiperidin-4-yl]-N-[(4-fluorophenyl)methyl]carbamate (10a) and 2-[4-(2-methyl-propoxy)phenyl]ethyl N-[(3S,4R)-3-fluoro-1-methylpiperidin-4-yl]-N-[(4-fluorophenyl)-methyl]carbamate (10b)]",15800,
"CC(C)Oc1ccc(COC(=O)N(Cc2ccc(F)cc2F)C2CCNCC2)cc1.O=C(O)C(F)(F)F [Compound 11, [4-(propan-2-yloxy)phenyl]methyl N-[(2,4-difluorophenyl)methyl]-N-(piperidin-4-yl)carbamate]",,9.6
"CC(C)Oc1ccc(COC(=O)N(Cc2ccc(F)cc2)[C@H]2CCN3CCC[C@H]3C2)cc1 [Compound 18, [4-(propan-2-yloxy)phenyl]methyl N-[(7S,8aS)-octahydroindolizin-7-yl]-N-[(4-fluorophenyl)methyl]carbamate]",15.8,
"CCOc1ccc(CC(=O)N(Cc2ccc(F)cc2F)C2CCN(C)CC2)cc1.O=C(O)C(F)(F)F [Compound 23, N-(2,4-difluorobenzyl)-2-(4-ethoxyphenyl)-N-(1-methylpiperidin-4-yl)acetamide; trifluoroacetic acid]",,7.8
"CCCCOc1ccc(CC(=O)N(Cc2ccc(F)cc2F)C2CCN(C)CC2)cc1.O=C(O)C(F)(F)F [Compound 24, N-(2,4-difluorobenzyl)-2-(4-butoxyphenyl)-N-(1-methylpiperidin-4-yl)acetamide trifluoroacetic acid]",,7.2
"CN1CCC(N(Cc2ccc(F)cc2F)C(=O)OCc2ccc(OCCCF)cc2)CC1.O=C(O)C(F)(F)F [Compound 27, 4-(3-fluoropropoxy)benzyl (2,4-difluorobenzyl)(1-methylpiperidin-4-yl)carbamate; trifluoroacetic acid]",,9.8
"CN1CCC(N(Cc2ccc(F)cc2F)C(=O)OCc2ccc(OC(CF)CF)cc2)CC1.O=C(O)C(F)(F)F [Compound 28, 4-((1,3-difluoropropan-2-yl)oxy)benzyl (2,4-difluorobenzyl)(1-methylpiperidin-4-yl)carbamate; trifluoroacetic acid]",,10.1
"CC(C)COc1ccc(CC(=O)N(Cc2ccc(Cl)cc2F)C2CCN(C)CC2)cc1.O=C(O)C(F)(F)F [Compound 31, N-[(4-chloro-2-fluorophenyl)methyl]-N-(1-methylpiperidin-4-yl)-2-[4-(2-methylpropoxy)phenyl]acetamide; trifluoroacetic acid]",,7.3

# Same assay, conditions: R-SAT, transfected NIH3T3 cells; guidance: high affinity pKi≥8.4, moderate affinity pKi≥7.7
row,SMILES,5-HT2a pKi
1,"CC(C)Oc1ccc(COC(=O)N(Cc2ccc(Cl)cc2)C2CCN(C)CC2)cc1 [Compound 1, [4-(propan-2-yloxy)phenyl]methyl N-[(4-chlorophenyl)methyl]-N-(1-methylpiperidin-4-yl)carbamate]",9.7
2,"CC(C)COc1ccc(COC(=O)N(Cc2ccc(F)cc2)C2CCN(C)CC2)cc1 [Compound 2, [4-(2-methylpropoxy)phenyl]methyl N-[(4-fluorophenyl)methyl]-N-(1-methylpiperidin-4-yl)carbamate]",9.9
3,"CC(C)Oc1ccc(COC(=O)N(Cc2ccc(F)cc2)C2CCN(C)CC2)cc1 [Compound 12, [4-(propan-2-yloxy)phenyl]methyl N-[(4-fluorophenyl)methyl]-N-(1-methylpiperidin-4-yl)carbamate]",9.6
4,"CC(C)Oc1ccc(COC(=O)N(Cc2ccc(F)cc2F)C2CCN(C)CC2)cc1 [Compound 13, [4-(propan-2-yloxy)phenyl]methyl N-[(2,4-difluorophenyl)methyl]-N-(1-methylpiperidin-4-yl)carbamate]",9.9
5,"CC(C)COc1ccc(COC(=O)N(Cc2ccc(F)cc2F)C2CCN(C)CC2)cc1 [Compound 14, [4-(2-methylpropoxy)phenyl]methyl N-[(2,4-difluorophenyl)methyl]-N-(1-methylpiperidin-4-yl)carbamate]",7.6
6,"COc1ccc(COC(=O)N(Cc2ccc(F)cc2F)C2CCN(C)CC2)cc1 [Compound 15, (4-methoxyphenyl)methyl N-[(2,4-difluorophenyl)methyl]-N-(1-methylpiperidin-4-yl)carbamate]",9.3
7,"COc1ccc(CSC(=O)N(Cc2ccc(F)cc2F)C2CCN(C)CC2)cc1 [Compound 16, N-[(2,4-difluorophenyl)methyl]-N-(1-methylpiperidin-4-yl){[(4-methoxyphenyl)methyl]sulfanyl}formamide]",7.6
8,"CC(C)Oc1ccc(C(OC(=O)N(Cc2ccc(F)cc2)C2CCN(C)CC2)C(F)(F)F)cc1 (centres unmarked) [Compound 17, 2,2,2-trifluoro-1-[4-(propan-2-yloxy)phenyl]ethyl N-[(4-fluorophenyl)methyl]-N-(1-methylpiperidin-4-yl)carbamate]",7.5
9,"CC(C)Oc1ccc(CC(=O)N(Cc2ccc(F)cc2F)C2CCN(C)CC2)cc1.O=C(O)C(F)(F)F [Compound 19, N-[(2,4-difluorophenyl)methyl]-N-(1-methylpiperidin-4-yl)-2-[4-(propan-2-yloxy)phenyl]acetamide; trifluoroacetic acid]",8.3
10,"CC(C)COc1ccc(CC(=O)N(Cc2ccc(F)cc2)C2CCN(C)CC2)c(F)c1.O=C(O)C(F)(F)F [Compound 20, 2-[2-fluoro-4-(2-methylpropoxy)phenyl]-N-[(4-fluorophenyl)methyl]-N-(1-methylpiperidin-4-yl)acetamide; trifluoroacetic acid]",8.2
11,"CC(C)COc1ccc(CC(=O)N(Cc2ccc(F)cc2)C2CCN(C)CC2)cc1F.O=C(O)C(F)(F)F [Compound 21, 2-[3-fluoro-4-(2-methylpropoxy)phenyl]-N-[(4-fluorophenyl)methyl]-N-(1-methylpiperidin-4-yl)acetamide; trifluoroacetic acid]",8.6
12,"CC(C)COc1ccc(CC(=O)N(Cc2ccc(F)cc2F)C2CCN(C)CC2)cc1.O=C(O)C(F)(F)F [Compound 22, N-(2,4-difluorobenzyl)-2-(4-isobutoxyphenyl)-N-(1-methylpiperidin-4-yl)acetamide; trifluoroacetic acid]",8.2
13,"CCOc1ccc(COC(=O)N(Cc2ccc(F)cc2F)C2CCN(C)CC2)cc1 [Compound 25, 4-ethoxybenzyl (2,4-difluorobenzyl)(1-methylpiperidin-4-yl)carbamate]",9.7
14,"C=CCOc1ccc(COC(=O)N(Cc2ccc(F)cc2F)C2CCN(C)CC2)cc1 [Compound 26, 4-(allyloxy)benzyl (2,4-difluorobenzyl)(1-methylpiperidin-4-yl)carbamate]",9.3
15,"CN1CCC(N(Cc2ccc(F)cc2F)C(=O)OCc2ccc(OCC(C)(C)O)cc2)CC1 [Compound 29, 4-(2-hydroxy-2-methylpropoxy)benzyl (2,4-difluorobenzyl)(1-methylpiperidin-4-yl)carbamate]",10.2
16,"CN1CCC(N(Cc2ccc(F)cc2F)C(=O)OCc2ccc(OC3CC3)cc2)CC1 [Compound 30, 4-cyclopropoxybenzyl (2,4-difluorobenzyl)(1-methylpiperidin-4-yl)carbamate]",10.5
